Data: patent US11083717B2, “Compositions and methods for drug sensitization of parasites” (The Texas A&M University System, priority 2015, dated 2021)
Read-outs that look alike come from different tables or passages of the source.

How the values were obtained:
S. cerevisiae = assay: in vitro; conditions: Saccharomyces cerevisiae
Excerpt: (§1) These tests included an IL-12 mouse model test to determine compound efficacy, verification of MIC50 for CP, cytotoxicity test for fibroblasts and yeast to determine potential toxic effects, a Human ether-a-go-go-related gene (hERG) test to determine potential cardiotoxicity, an AMES test tp determine mutagenic potential, a Safety Screen 44 test to determine common negative off-target drug interastion (Eurofins Cerep, SA, France), a cytochrome P450 (CYP) test to determine potential liver toxicity, a maximum tolerated dose, test, a Pharmacokinetics (PK) test to determine fate of the substance administered to a living organism tests for plasma stability in human and mouse, to measure the degradation of compound in plasma MClint and HClint test to determine in vitro intrinsic clearance for Mouse and Human, and kinetic solubility and plasma protein binding tests in mouse and human.

human fibroblast = assay: in vitro
Excerpt: as §1

Structure (SMILES)	concentrations at which not toxic, S. cerevisiae cytotoxicity testing (S. cerevisiae) [µM]	concentrations at which not toxic, human fibroblast cytotoxicity testing (human fibroblast; human) [µM]	concentrations at which not toxic, human fibroblast cytotoxicity testing (human fibroblast) [µM]
CC(C)NC(=O)Cc1ccc(Oc2nc3cc(F)c(F)cc3s2)cc1O [NZ-407, 2-{4-[(5,6-difluoro-1,3-benzothiazol-2-yl)oxy]-2-hydroxyphenyl}-N-(propan-2-yl)acetamide]	≥ 100	≥ 100	
CC(C(=O)NCC(O)CO)c1ccc(Oc2cnc3cc(Cl)ccc3n2)cc1 (stereo not shown) [NZ-534, 2-{4-[(6-chloroquinoxalin-2-yl)oxy]phenyl}-N-(2,3-dihydroxypropyl)propanamide]	≥ 100	≥ 100	
CNC(=O)Cc1ccc(Oc2cnc3cc(Cl)ccc3n2)cc1O [NZ-402, 2-{4-[(6-chloroquinoxalin-2-yl)oxy]-2-hydroxyphenyl}-N-methylacetamide]	≥ 100		≥ 100
CONC(=O)Cc1ccc(Oc2cnc3cc(Cl)ccc3n2)cc1 [NZ-301, 2-{4-[(6-chloroquinoxalin-2-yl)oxy]phenyl}-N-methoxyacetamide]	≥ 100		≥ 100
CC(C(=O)O)c1ccc(Oc2nc3ccc(Cl)cc3s2)cc1 (stereo not shown) [NZ-312, 2-{4-[(6-chloro-1,3-benzothiazol-2-yl)oxy]phenyl}propanoic acid]	≥ 100	≥ 100	
COc1ccc2nc(Oc3ccc(C(C)C(=O)O)cc3)sc2c1 (stereo not shown) [NZ-334]	≥ 100	≥ 100	
CC(C)(C)OC(=O)Nc1ccc(Oc2nc3ccc(F)cc3s2)cc1 [NZ-412, tert-butyl N-{4-[(6-fluoro-1,3-benzothiazol-2-yl)oxy]phenyl}carbamate]	≥ 100	≥ 100	
CCOC(=O)c1ccc2nc(Oc3ccc(NC(=O)NC(C)C)cc3)sc2c1 [NZ-378, ethyl 2-(4-{[(propan-2-yl)carbamoyl]amino}phenoxy)-1,3-benzothiazole-6-carboxylate]	≥ 100	≥ 100	
O=C(O)Cc1ccc(Oc2cnc3cc(Cl)ccc3n2)cc1 [NZ-298, 2-{4-[(6-chloroquinoxalin-2-yl)oxy]phenyl}acetic acid]	≥ 100	≥ 100	
CNC(=O)Cn1ccc(Oc2nc3ccc(F)cc3s2)cc1=O [NZ-419, 2-{4-[(6-fluoro-1,3-benzothiazol-2-yl)oxy]-2-oxo-1,2-dihydropyridin-1-yl}-N-methylacetamide]	≥ 100	≥ 100	
CC(C)NC(=O)Nc1ccc(Oc2nc3cc(F)ccc3s2)cc1 [NZ-373, 1-{4-[(5-fluoro-1,3-benzothiazol-2-yl)oxy]phenyl}-3-(propan-2-yl)urea]	≥ 100		≥ 100
O=C(O)C(O)c1ccc(Oc2nc3ccc(Cl)cc3s2)cc1 (stereo not shown) [NZ-337, 2-{4-[(6-chloro-1,3-benzothiazol-2-yl)oxy]phenyl}-2-hydroxyacetic acid]	≥ 100	≥ 100	
Nc1ccc(Oc2nc3ccc(F)cc3s2)cc1 [NZ-413, 4-[(6-fluoro-1,3-benzothiazol-2-yl)oxy]aniline]	≥ 100	≥ 100	
CC(C)NC(=O)Nc1ccc(Oc2nc3ccc(CO)cc3s2)cc1 [NZ-381, 1-(4-{[6-(hydroxymethyl)-1,3-benzothiazol-2-yl]oxy}phenyl)-3-(propan-2-yl)urea]	≥ 100	≥ 100	
COC(=O)C(C)(C)Oc1ccc(Oc2nc3ccc(Cl)cc3s2)cc1 [NZ-317, methyl 2-{4-[(6-chloro-1,3-benzothiazol-2-yl)oxy]phenoxy}-2-methylpropanoate]	≥ 100	≥ 100	
CC(C)(Oc1ccc(Oc2nc3ccc(Cl)cc3s2)cc1)C(=O)O [NZ-318, 2-{4-[(6-chloro-1,3-benzothiazol-2-yl)oxy]phenoxy}-2-methylpropanoic acid]	≥ 100		≥ 100

Structure (SMILES)	concentrations at which not toxic, S. cerevisiae cytotoxicity testing (S. cerevisiae) [µM]	concentrations at which not toxic, human fibroblast cytotoxicity testing (human fibroblast; human) [µM]	concentrations at which not toxic, human fibroblast cytotoxicity testing (human fibroblast) [µM]
CC(C(=O)N1CCN(C2CC2)CC1)c1ccc(Oc2nc3ccc(Cl)cc3s2)cc1 (stereo not shown) [NZ-511, 2-{4-[(6-chloro-1,3-benzothiazol-2-yl)oxy]phenyl}-1-(4-cyclopropylpiperazin-1-yl)propan-1-one]	≥ 100	≥ 100	
COC(=O)C(O)c1ccc(Oc2nc3ccc(Cl)cc3s2)cc1 (stereo not shown) [NZ-336, methyl 2-{4-[(6-chloro-1,3-benzothiazol-2-yl)oxy]phenyl}-2-hydroxyacetate]	50 to 100	50 to 100	
CC(C)NC(=O)Nc1ccc(Oc2nc3cc(Cl)c(Cl)cc3s2)cc1 [NZ-393, 1-{4-[(5,6-dichloro-1,3-benzothiazol-2-yl)oxy]phenyl}-3-(propan-2-yl)urea]	≥ 100		≥ 100
CC(C)NC(=O)Nc1ccc(Oc2nc3c(F)cccc3s2)cc1 [NZ-374, 1-{4-[(4-fluoro-1,3-benzothiazol-2-yl)oxy]phenyl}-3-(propan-2-yl)urea]	≥ 100	≥ 100	
CONC(=O)Cc1ccc(Oc2nc3ccc(F)cc3s2)cc1 [NZ-300, 2-{4-[(6-fluoro-1,3-benzothiazol-2-yl)oxy]phenyl}-N-methoxyacetamide]	≥ 100		≥ 100
CCNC(=O)COc1ccc(Oc2cnc3cc(Cl)ccc3n2)cc1 [NZ-306, 2-{4-[(6-chloroquinoxalin-2-yl)oxy]phenoxy}-N-ethylacetamide]	≥ 100		≥ 100
CC(C)ONC(=O)COc1ccc(Oc2cnc3cc(Cl)ccc3n2)cc1 [NZ-326, 2-{4-[(6-chloroquinoxalin-2-yl)oxy]phenoxy}-N-(propan-2-yloxy)acetamide]	≥ 100		≥ 100
CNC(=O)Cc1ccc(Oc2nc3ccc(Cl)cc3s2)cc1OC [NZ-392, 2-{4-[(6-chloro-1,3-benzothiazol-2-yl)oxy]-2-methoxyphenyl}-N-methylacetamide]	≥ 100		≥ 100
O=C(O)Cn1ccc(Oc2nc3ccc(F)cc3s2)cc1=O [NZ-418, 2-{4-[(6-fluoro-1,3-benzothiazol-2-yl)oxy]-2-oxo-1,2-dihydropyridin-1-yl}acetic acid]	≥ 100	≥ 100	
CC(C)NC(=O)Nc1ccc(Oc2nc3ccc(C#N)cc3s2)cc1 [NZ-377, 1-{4-[(6-cyano-1,3-benzothiazol-2-yl)oxy]phenyl}-3-(propan-2-yl)urea]	≥ 100		≥ 100
CC(C)NC(=O)Cc1ccc(O)cc1Oc1nc2ccc(F)cc2s1 [NZ-406, 2-{2-[(6-fluoro-1,3-benzothiazol-2-yl)oxy]-4-hydroxyphenyl}-N-(propan-2-yl)acetamide]	≥ 100	≥ 100	
CC(C)NC(=O)Nc1ccc(Oc2nc3ccc(O)cc3s2)cc1 [NZ-362, 1-{4-[(6-hydroxy-1,3-benzothiazol-2-yl)oxy]phenyl}-3-(propan-2-yl)urea]	≥ 100	≥ 100	
CONC(=O)C(C)c1ccc(Oc2nc3ccc(Cl)cc3s2)cc1 (stereo not shown) [NZ-313, 2-{4-[(6-chloro-1,3-benzothiazol-2-yl)oxy]phenyl}-N-methoxypropanamide]	≥ 100	≥ 100	
CC(C)(C)OC(=O)Nc1ccc(Oc2cnc3cc(Cl)ccc3n2)cc1 [NZ-321, tert-butyl N-{4-[(6-chloroquinoxalin-2-yl)oxy]phenyl}carbamate]	≥ 100	≥ 100	
COC(=O)C(C)c1ccc(Oc2nc3ccc(F)cc3s2)cc1 (stereo not shown) [NZ-328, methyl 2-{4-[(6-fluoro-1,3-benzothiazol-2-yl)oxy]phenyl}propanoate]	≥ 100	≥ 100	
CC(C)NC(=O)Cc1ccc(Oc2nc3ccc(F)cc3s2)cc1O [NZ405, 2-{4-[(6-fluoro-1,3-benzothiazol-2-yl)oxy]-2-hydroxyphenyl}-N-(propan-2-yl)acetamide]	≥ 100		≥ 100
